Measurements published in patent publication US8614327B2 (Vertex Pharmaceuticals Incorporated, priority 2004, dated 2013).

Target: T1, ΔF508-CFTR (Homo sapiens, UniProt P13569, DEL508-508)
T1 construct: expressed in transfected cells
Experiment: Membrane potential optical (FRET/VIPR) assay, identification of potentiator compounds
Type: cell-based
Conditions: Table 3, assay not given; for % Activity: relative efficacy
Method in brief: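 Double-addition potentiator screen: compound delivered in gluconate-substituted Cl^--free medium, membrane potential followed via CC2-DMPE/DiSBAC2(3) FRET on VIPR. Cells were ΔF508-CFTR-expressing NIH3T3 mouse fibroblasts, held 2 h at 37° C. then 24 h at 27° C. before assay.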

T1 sequence (P13569 with tags, fused parts or gaps DEL508-508): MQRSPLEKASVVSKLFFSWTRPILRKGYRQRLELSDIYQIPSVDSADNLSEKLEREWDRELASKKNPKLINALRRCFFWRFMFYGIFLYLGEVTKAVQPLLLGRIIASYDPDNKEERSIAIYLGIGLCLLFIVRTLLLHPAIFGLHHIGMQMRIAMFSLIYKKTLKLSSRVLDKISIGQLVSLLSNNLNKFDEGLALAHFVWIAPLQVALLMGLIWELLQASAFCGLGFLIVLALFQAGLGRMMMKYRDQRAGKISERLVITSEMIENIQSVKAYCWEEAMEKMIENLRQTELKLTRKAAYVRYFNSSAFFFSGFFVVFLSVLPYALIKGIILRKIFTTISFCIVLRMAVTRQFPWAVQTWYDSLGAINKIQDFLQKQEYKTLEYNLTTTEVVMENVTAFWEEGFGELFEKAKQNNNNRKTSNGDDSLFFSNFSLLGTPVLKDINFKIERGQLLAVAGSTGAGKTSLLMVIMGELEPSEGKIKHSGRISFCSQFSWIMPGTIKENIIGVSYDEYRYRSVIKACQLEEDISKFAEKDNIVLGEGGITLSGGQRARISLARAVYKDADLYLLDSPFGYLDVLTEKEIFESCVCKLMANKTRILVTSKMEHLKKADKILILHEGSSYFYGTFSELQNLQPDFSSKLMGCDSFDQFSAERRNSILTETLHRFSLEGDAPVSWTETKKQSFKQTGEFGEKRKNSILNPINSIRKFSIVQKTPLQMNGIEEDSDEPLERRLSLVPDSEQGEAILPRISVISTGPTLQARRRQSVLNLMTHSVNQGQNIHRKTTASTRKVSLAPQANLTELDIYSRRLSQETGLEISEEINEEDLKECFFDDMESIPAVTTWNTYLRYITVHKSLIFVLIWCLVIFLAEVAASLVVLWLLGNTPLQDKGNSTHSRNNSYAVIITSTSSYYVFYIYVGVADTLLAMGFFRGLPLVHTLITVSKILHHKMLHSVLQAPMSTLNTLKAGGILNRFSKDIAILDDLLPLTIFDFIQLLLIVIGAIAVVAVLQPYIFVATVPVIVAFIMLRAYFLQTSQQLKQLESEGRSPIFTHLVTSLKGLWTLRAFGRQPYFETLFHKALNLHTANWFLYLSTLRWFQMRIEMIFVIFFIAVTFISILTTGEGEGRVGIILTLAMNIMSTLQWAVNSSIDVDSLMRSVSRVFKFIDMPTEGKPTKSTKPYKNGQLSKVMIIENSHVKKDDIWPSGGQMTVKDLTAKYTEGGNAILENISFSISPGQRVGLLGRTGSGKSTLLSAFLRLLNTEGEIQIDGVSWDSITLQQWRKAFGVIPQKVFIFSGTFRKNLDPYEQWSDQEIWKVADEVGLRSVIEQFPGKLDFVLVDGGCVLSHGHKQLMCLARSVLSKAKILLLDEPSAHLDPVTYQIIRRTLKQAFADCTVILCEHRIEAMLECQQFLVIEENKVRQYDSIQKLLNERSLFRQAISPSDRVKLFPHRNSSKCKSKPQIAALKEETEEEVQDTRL

Row | EC50 [µM] | % Activity | Compound
1 | 10 to 25 | + (<25%) | Cc1cccc(NC(=O)c2c[nH]c3ccccc3c2=O)c1C#N [Compound 201, N-(2-cyano-3-methyl-phenyl)-4-oxo-1H-quinoline-3-carboxamide]
2 | 10 to 25 | ++ (between 25% to 100%) | CC(C)(C)c1ccc(NC(=O)c2cnc3ccccc3c2OCc2ccccc2)cc1O [Compound 275, 4-Benzyloxy-N-(3-hydroxy-4-tert-butyl-phenyl)-quinoline-3-carboxamide]
3 | 10 to 25 | +++ (>100%) | O=C(Nc1ccccc1-n1cccc1)c1c[nH]c2ccccc2c1=O [Compound 293, 4-oxo-N-[2-(1H-pyrrol-1-yl)phenyl]-1H-quinoline-3-carboxamide]
4 | < 10 | +++ (>100%) | Cc1ccc2c(=O)c(C(=O)Nc3cc(O)c(C(C)(C)C)cc3C(C)(C)C)c[nH]c2c1 [Compound 640, N-(5-hydroxy-2,4-ditert-butyl-phenyl)-7-methyl-4-oxo-1H-quinoline-3-carboxamide]
5 | < 10 | ++ (between 25% to 100%) | Cc1cccc2[nH]cc(C(=O)Nc3ccc(N4CCC[C@@H]4C)cc3C(F)(F)F)c(=O)c12 [Compound 511, (S)-5-methyl-N-(4-(2-methylpyrrolidin-1-yl)-2-(trifluoromethyl)phenyl)-4-oxo-1,4-dihydroquinoline-3-carboxamide]
6 | < 10 | ++ (between 25% to 100%) | CC(C)(C)COC(=O)NCC(C)(C)c1ccc(NC(=O)c2c[nH]c3ccccc3c2=O)cc1 [Compound 341, [2-methyl-2-[4-[(4-oxo-1H-quinolin-3-yl)carbonylamino]phenyl]-propyl]aminoformic acid neopentyl ester]
7 | < 10 | ++ (between 25% to 100%) | O=C(Nc1cc(O)c(C23CC4CC(CC(C4)C2)C3)cc1F)c1cnc2ccccc2c1O [Compound 395, N-[4-(1-adamantyl)-2-fluoro-5-hydroxy-phenyl]-4-hydroxy-quinoline-3-carboxamide]
8 | – | ++ (between 25% to 100%) | CSc1ccccc1-c1ccccc1NC(=O)c1c[nH]c2ccccc2c1=O [Compound 279, N-[2-(2-methylsulfanylphenyl)phenyl]-4-oxo-1H-quinoline-3-carboxamide]
9 | < 10 | ++ (between 25% to 100%) | COc1ccc(NC(=O)c2c[nH]c3ccccc3c2=O)cc1 [Compound 439, N-(4-methoxyphenyl)-4-oxo-1H-quinoline-3-carboxamide]
10 | < 10 | ++ (between 25% to 100%) | CN(Cc1ccccc1NC(=O)c1c[nH]c2ccccc2c1=O)C1CCCCC1 [Compound 354, N-[2-[(cyclohexyl-methyl-amino)methyl]phenyl]-4-oxo-1H-quinoline-3-carboxamide]
11 | < 10 | ++ (between 25% to 100%) | C[C@H]1CCCN1c1ccc(NC(=O)c2c[nH]c3cccc(C(F)(F)F)c3c2=O)c(C(F)(F)F)c1 [Compound 669, (S)-N-(4-(2-methylpyrrolidin-1-yl)-2-(trifluoromethyl)phenyl)-4-oxo-5-(trifluoromethyl)-1,4-dihydroquinoline-3-carboxamide]

More lines, now with the values behind:

Row | Compound | EC50 [µM] | % Activity
12 | O=C(Nc1ccccc1Oc1ncc(C(F)(F)F)cc1Cl)c1c[nH]c2ccccc2c1=O [Compound 42, N-[2-[[3-chloro-5-(trifluoromethyl)-2-pyridyl]oxy]phenyl]-4-oxo-1H-quinoline-3-carboxamide] | < 10 | ++ (between 25% to 100%)
13 | Cc1ccccc1-c1ccccc1NC(=O)c1c[nH]c2ccccc2c1=O [Compound 199, N-[2-(o-tolyl)phenyl]-4-oxo-1H-quinoline-3-carboxamide] | < 10 | ++ (between 25% to 100%)
14 | CC(C)(C)c1cc(Cl)c(O)cc1NC(=O)c1c[nH]c2ccccc2c1=O [Compound 426, N-(4-chloro-5-hydroxy-2-tert-butyl-phenyl)-4-oxo-1H-quinoline-3-carboxamide] | < 10 | ++ (between 25% to 100%)
15 | O=C(Nc1ccc2cc[nH]c2c1)c1cnc2c(F)cc(F)cc2c1O [Compound 377, 6,8-difluoro-4-hydroxy-N-(1H-indol-6-yl)quinoline-3-carboxamide] | 10 to 25 | ++ (between 25% to 100%)
16 | Cc1ccc2c(=O)c(C(=O)Nc3cc4[nH]ccc4cc3C(C)(C)C)c[nH]c2c1 [Compound 704, 7-methyl-4-oxo-N-(5-tert-butyl-1H-indol-6-yl)-1H-quinoline-3-carboxamide] | < 10 | ++ (between 25% to 100%)
17 | Cc1cccc(NC(=O)c2c[nH]c3ccccc3c2=O)c1 [Compound 449, N-(m-tolyl)-4-oxo-1H-quinoline-3-carboxamide] | < 10 | ++ (between 25% to 100%)
18 | O=C(Nc1cc2[nH]ccc2cc1Cl)c1c[nH]c2ccccc2c1=O [Compound 32, N-(5-chloro-1H-indol-6-yl)-4-oxo-1H-quinoline-3-carboxamide] | < 10 | ++ (between 25% to 100%)
19 | O=C(Nc1ccc(OCc2ccccc2)cc1)c1c[nH]c2ccccc2c1=O [Compound 189, N-(4-benzyloxyphenyl)-4-oxo-1H-quinoline-3-carboxamide] | < 10 | ++ (between 25% to 100%)
20 | CC(=O)Nc1cc(NC(=O)c2c[nH]c3ccccc3c2=O)ccc1C [Compound 248, N-(3-Acetylamino-4-methyl-phenyl)-4-oxo-1H-quinoline-3-carboxamide] | 10 to 25 | ++ (between 25% to 100%)
21 | O=C(Nc1ccc(N2CCC[C@H]2CO)cc1C(F)(F)F)c1c[nH]c2ccccc2c1=O [Compound 634, (S)-N-(4-(2-(hydroxymethyl)pyrrolidin-1-yl)-2-(trifluoromethyl)phenyl)-4-oxo-1,4-dihydroquinoline-3-carboxamide] | < 10 | ++ (between 25% to 100%)
22 | Cc1cccc2[nH]cc(C(=O)Nc3ccc(N4CCC(C)C4)cc3C(F)(F)F)c(=O)c12 (stereo not drawn) [Compound 546, 5-methyl-N-[4-(3-methylpyrrolidin-1-yl)-2-(trifluoromethyl)phenyl]-4-oxo-1H-quinoline-3-carboxamide] | < 10 | ++ (between 25% to 100%)
23 | CC(C)(C)c1cc(F)c(NC(=O)c2c[nH]c3cccc(F)c3c2=O)cc1O [Compound 610, 5-fluoro-N-(2-fluoro-5-hydroxy-4-tert-butyl-phenyl)-4-oxo-1H-quinoline-3-carboxamide] | < 10 | ++ (between 25% to 100%)
24 | COc1cccc(-c2ccccc2NC(=O)c2c[nH]c3ccccc3c2=O)c1F [Compound 363, N-[2-(2-fluoro-3-methoxy-phenyl)phenyl]-4-oxo-1H-quinoline-3-carboxamide] | < 10 | +++ (>100%)
25 | O=C(Nc1ccc(Sc2ccccc2)cc1)c1c[nH]c2ccccc2c1=O [Compound 470, 4-oxo-N-(4-phenylsulfanylphenyl)-1H-quinoline-3-carboxamide] | < 10 | ++ (between 25% to 100%)
26 | CC(C)c1ccc(N)cc1NC(=O)c1c[nH]c2ccccc2c1=O [Compound 101, N-(5-amino-2-isopropyl-phenyl)-4-oxo-1H-quinoline-3-carboxamide] | < 10 | ++ (between 25% to 100%)
